± gives the expanded uncertainty stated by the source.
What was measured:
[1] = mn = molality of the nth substance listed, in mol/kg; settings: 101.33 kPa, Liquid, m2 = 0; for viscosity: Capillary tube (Ostwald / Ubbelohde) method; for mass density: Vibrating tube method
[2] = 101.33 kPa, Liquid; for viscosity: Capillary tube (Ostwald / Ubbelohde) method; for mass density: Vibrating tube method
[3] = wn = mass fraction of the nth substance listed; settings: 101.33 kPa, Liquid, w1 = 0.009; for viscosity: Capillary tube (Ostwald / Ubbelohde) method; for mass density: Vibrating tube method

O [water] + CO/N=C(\C(=O)N[C@@H]1C(=O)N2C(C(=O)O)=C(C[N+]3(C)CCCC3)CS[C@H]12)c1csc(N)n1.Cl.[Cl-] showed a viscosity ([1]; 278.15 K) of 1.521 ± 0.032 mPa·s, a mass density ([1]; 278.15 K) of 999.96 ± 0.21 kg/m3 and a viscosity ([1]; 283.15 K) of 1.307 ± 0.027 mPa·s. It also gave a mass density ([1]; 283.15 K) of 999.7 ± 0.21 kg/m3, a viscosity ([1]; 288.15 K) of 1.135 ± 0.024 mPa·s and a viscosity ([1]; 293.15 K) of 1.002 ± 0.021 mPa·s. For the same compound, the viscosity ([1]; 298.15 K) was 0.8903 ± 0.019 mPa·s, the viscosity ([1]; 303.15 K) was 0.7977 ± 0.017 mPa·s and the viscosity ([1]; 308.15 K) was 0.719 ± 0.015 mPa·s. It also gave a viscosity ([1]; 313.15 K) of 0.6532 ± 0.014 mPa·s.

With O [water] the viscosity ([2]; 278.15 K) was 1.521 ± 0.032 mPa·s, the mass density ([2]; 278.15 K) was 999.96 ± 0.2 kg/m3 and the viscosity ([2]; 283.15 K) was 1.307 ± 0.027 mPa·s. The mass density ([2]; 283.15 K) was 999.7 ± 0.2 kg/m3, the viscosity ([2]; 288.15 K) was 1.135 ± 0.024 mPa·s and the viscosity ([2]; 293.15 K) was 1.002 ± 0.021 mPa·s. For the same compound, the viscosity ([2]; 298.15 K) was 0.8903 ± 0.019 mPa·s, the viscosity ([2]; 303.15 K) was 0.7977 ± 0.017 mPa·s and the viscosity ([2]; 308.15 K) was 0.719 ± 0.015 mPa·s. It also gave a viscosity ([2]; 313.15 K) of 0.6532 ± 0.014 mPa·s.

In the case of [Cl-].[Na+] [sodium chloride] + O, the viscosity ([3]; 278.15 K) is reported as 1.53 ± 0.032 mPa·s, the mass density ([3]; 278.15 K) is reported as 1006.09 ± 0.21 kg/m3 and the viscosity ([3]; 283.15 K) is reported as 1.321 ± 0.028 mPa·s. It also gave a mass density ([3]; 283.15 K) of 1005.64 ± 0.21 kg/m3, a viscosity ([3]; 288.15 K) of 1.154 ± 0.024 mPa·s and a mass density ([3]; 288.15 K) of 1005.07 ± 0.21 kg/m3. It also gave a viscosity ([3]; 293.15 K) of 1.015 ± 0.021 mPa·s, a mass density ([3]; 293.15 K) of 1004.14 ± 0.21 kg/m3 and a viscosity ([3]; 298.15 K) of 0.9068 ± 0.019 mPa·s. It also gave a mass density ([3]; 298.15 K) of 1002.96 ± 0.21 kg/m3, a viscosity ([3]; 303.15 K) of 0.8105 ± 0.017 mPa·s and a mass density ([3]; 303.15 K) of 1001.47 ± 0.21 kg/m3. For the same compound, the viscosity ([3]; 308.15 K) was 0.7363 ± 0.015 mPa·s, the mass density ([3]; 308.15 K) was 999.75 ± 0.21 kg/m3 and the viscosity ([3]; 313.15 K) was 0.6641 ± 0.014 mPa·s. For the same compound, the mass density ([3]; 313.15 K) was 997.82 ± 0.21 kg/m3.

— the NIST ThermoML archive (doi:10.1016/j.jct.2013.06.009)
